The record followed here is patent publication US12404242B2, “Compositions and methods for making and using small molecules in the treatment of cancer” (Reglagene, Inc., priority 2021, dated 2025).

Data set [1] concerns U87 cells. The data set can be described thus: Cell viability (AlamarBlue), U87 glioblastoma cells. Format: cell-based, human. Details: key to EC50 (μM) in U87 cells: Inactive: less than 50% inhibition at the highest concentration tested at 50 μM. The note with it: 72 hours of treatment. The method in brief: (§1)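 EC50 from AlamarBlue fluorescence after 72 h compound exposure at rising concentrations; readings normalized to no-treatment wells. Compound added 24 h post-plating.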

Data set [2] deals with LNCaP cells. Nature of the data set: Cell viability (AlamarBlue), LNCaP prostate cancer cells. The class given is cell-based, human. Particulars: 72 hours of treatment. The method in brief: as §1
Data set [3] concerns RWPE1 cells. Nature of the data set: Cell viability (AlamarBlue), RWPE1 normal prostate cells. Particulars: normal prostate cell line; for EC50 (μM) in RWPE1 cells: 72 hours of treatment. Set-up: key to EC50 (μM) in RWPE1 cells: Inactive: less than 50% inhibition at the highest concentration tested at 50 μM. Format: cell-based, human. As to the method: (§2) In another exemplary method, half maximal effective concentration (EC50) was determined for some compounds and their isomers as disclosed herein in a variety of human cancer cell lines. In brief, cells from two prostate cancer cell lines (LNCaP, 22RV1), one glioblastoma cell line (U87), one breast cancer cell line (MCF7), a glioma cell line (LN18), a normal prostate cell line (RWPE1), and a glioblastoma cell line (T98G) were plated in a multi-well plate. After 24 hours, one of the compounds herein was added to the well at increasing concentrations. After 72 hours of treatment, cell viability was assessed using AlamrBlue® (Invitrogen) and fluorescence was read using the CLARIOstar Plus Multilabel Plate Reader (BMG Labtech). Samples were normalized to no treatment controls. EC50 values were determined using GraphPad Prism.
(Alamar Blue is a resazurin reagent that responds to reducing activity.)

Data set [4] deals with 22RV1 cells. The data set can be described thus: Cell viability (AlamarBlue), 22RV1 prostate cancer cells. The class given is cell-based, human. The note with it: 72 hours of treatment. The method in brief: as §1
For data set [5], the system named is MCF7 cells. The data set can be described thus: Cell viability (AlamarBlue), MCF7 breast cancer cells. The note with it: Homo sapiens, 72 hours of treatment. The class given is cell-based. As to the method:
as §2

A short description of data set [6]: Kinetic solubility in aqueous PBS buffer (HPLC-MS). Format: physicochemical. Particulars: kinetic from dmso stock. How it is done: In another exemplary method, central nervous system multiparameter optimization (CNS MPO) score and kinetic solubility of selected compounds was determined. CNS MPO score for compounds and their isomers disclosed herein were calculated using an algorithm that uses a weighted scoring function assessing 6 key physicochemical properties (clogP, clogD, MW, TPSA, HBD, and pKa) for blood-brain-barrier (BBB penetration). CNS MPO score ranged from 0 and 6.0 with scores≥4.0 used as a cut-off to select compounds that can have a high probability of accumulating in the CNS. Kinetic solubility of a compound is the maximum solubility of the fastest precipitating species of the compound. Kinetic solubility was determined by preparing a concentrated stock solution for compounds and their isomers disclosed herein in an organic solvent (DMSO), after which the solution was mixed with an aqueous PBS buffer and then filtered. Filtrate was tested to quantify the kinetic solubilty using HPLC-MS calibration curve. The CNS MPO Score and kinetic solubility of the compounds tested are provided in Table 7 where “ND” means not determined.

Data set [7] concerns cancer cell. The data set can be described thus: Cancer cell viability, cell line not stated (per-compound ranges in description). Format: cell-based. The note with it: 'In some embodiments', values worded 'about', read-out: EC50 in cancer cell viability (range stated in description). As to the method: as §2
Setting [8] is: DMSO stock mixed with aqueous PBS buffer, filtered, read-out: Kinetic Solubility.
Where [9] appears, read: 'In some embodiments', values worded 'about', read-out: kinetic solubility (range stated in description).

The structures appear in SMILES notation. In brackets after ≈: the same amount, converted by molar mass. Like-named read-outs stand apart in the source and are kept apart here.

Broadly, the EC50 is the midpoint of the concentration-response curve. On to `COC1CC(C(=O)NC(=O)Nc2ccc(Oc3ccc(F)cn3)c(C)c2)C1` (single isomer, unassigned) [Compound 15A, N-((4-((5-fluoropyridin-2-yl)oxy)-3-methylphenyl)carbamoyl)-3-methoxycyclobutanecarboxamide], for which the concentration giving a half-maximal response (EC50) in data set [1] was 5.5 µM; in data set [2], 1.6 µM; in data set [4], 4.1 µM; in data set [5] it was 11.5 µM. Moreover, the “EC50 (μM) in RWPE1 cells” value in data set [3] was “Inactive”.

As for `COC1CC(C(=O)NC(=O)Nc2ccc(Oc3ccc(C#N)cn3)c(C)c2)C1` (single isomer, unassigned) [Compound 16A, N-((4-((5-cyanopyridin-2-yl)oxy)-3-methylphenyl)carbamoyl)-3-methoxycyclobutane-1-carboxamide], the 50% effective concentration (EC50) in data set [1] is 10 µM; in data set [2] (Homo sapiens, LNCaP, 72 h), 2.9 µM; in data set [4], 5.8 µM; in data set [5] it was 12.7 µM. Also, in data set [3], the “EC50 (μM) in RWPE1 cells” value is “Inactive”.

For the compound `COC1CC(C(=O)NC(=O)Nc2ccc(Oc3ncc(Cl)cn3)c(C)c2)C1` (single isomer, unassigned) [Compound 20A, N-((4-((5-chloropyrimidin-2-yl)oxy)-3-methylphenyl)carbamoyl)-3-methoxycyclobutane-1-carboxamide], the concentration giving a half-maximal response (EC50) came to 2.6 µM in data set [1], 0.87 µM in data set [2], 1.5 µM in data set [4] and 5.8 µM in data set [5]. In addition, the “EC50 (μM) in RWPE1 cells” value in data set [3] is listed as “Inactive”.

Broadly, the solubility (kinetic) is the concentration staying in solution when a stock, usually in DMSO, is diluted into the medium. On to `COC1CCC(C(=O)NC(=O)Nc2ccc(Oc3ncc(Cl)cn3)c(C)c2)CC1` (stereo not drawn) [Compound 1, N-((4-((5-chloropyrimidin-2-yl)oxy)-3-methylphenyl)carbamoyl)-4-methoxycyclohexane-1-carboxamide], for which the concentration giving a half-maximal response (EC50) was 6 µM in data set [1] (Homo sapiens, U-87 MG, 72 h); 2.4 µM in data set [2] (Homo sapiens, LNCaP, 72 h); 3.7 µM in data set [4] (Homo sapiens, 22Rv1, 72 h); 3.4 µM in data set [5]. Further, in data set [3], the “EC50 (μM) in RWPE1 cells” value was “Inactive”. The solubility (kinetic) in data set [6] (setting [8]) was found to be 4.9 µM (≈ 2.05 µg/mL).

For the compound `Cc1cc(NC(=O)NC(=O)C2COC2)ccc1Oc1ncc(Cl)cn1` [Compound 2, 1-{4-[(5-chloropyrimidin-2-yl)oxy]-3-methylphenyl}-3-(oxetane-3-carbonyl)urea], the concentration for a half-maximal effect (EC50) in data set [2] (Homo sapiens, LNCaP, 72 h) was 19 µM; in data set [4] (Homo sapiens, 22Rv1, 72 h), 41 µM; in data set [5], 20.9 µM.

For the compound `COC1CCC(C(=O)NC(=O)Nc2ccc(Oc3ccc(Cl)cn3)c(C)c2)CC1` (stereo not drawn) [Compound 7, N-((4-((5-chloropyridin-2-yl)oxy)-3-methylphenyl)carbamoyl)-4-methoxycyclohexane-1-carboxamide], the half-maximal effective concentration (EC50) was found to be 4.4 µM in data set [1] (Homo sapiens, U-87 MG, 72 h); 2.8 µM in data set [2] (Homo sapiens, LNCaP, 72 h); 2.9 µM in data set [4] (Homo sapiens, 22Rv1, 72 h); 2.4 µM in data set [5]. The “EC50 (μM) in RWPE1 cells” value in data set [3] was “Inactive”. For the same compound, in data set [6] (setting [8]), the kinetic solubility was determined as 0.49 µM (≈ 0.205 µg/mL).

As to `COC1CCC(C(=O)NC(=O)Nc2ccc(Oc3ncc(F)cn3)c(C)c2)CC1` (stereo not drawn) [Compound 8, 3-{4-[(5-fluoropyrimidin-2-yl)oxy]-3-methylphenyl}-1-(4-methoxycyclohexanecarbonyl)urea], the 50% effective concentration (EC50) was determined as 36 µM in data set [1] (Homo sapiens, U-87 MG, 72 h); 27.5 µM in data set [2] (Homo sapiens, LNCaP, 72 h); 26 µM in data set [4] (Homo sapiens, 22Rv1, 72 h); 24.3 µM in data set [5]. For the same compound, the “EC50 (μM) in RWPE1 cells” value in data set [3] is on record as “Inactive”.

As for `COC1CCC(C(=O)NC(=O)Nc2ccc(Oc3ccc(F)cn3)c(C)c2)CC1` (stereo not drawn) [Compound 9, 3-{4-[(5-fluoropyridin-2-yl)oxy]-3-methylphenyl}-1-(4-methoxycyclohexanecarbonyl)urea], the EC50 is 4.9 µM in data set [1] (Homo sapiens, U-87 MG, 72 h); 11.5 µM in data set [2] (Homo sapiens, LNCaP, 72 h); 5.1 µM in data set [4] (Homo sapiens, 22Rv1, 72 h); 8.5 µM in data set [5]. Moreover, the “EC50 (μM) in RWPE1 cells” value in data set [3] is given as “Inactive”.

`COC1CCC(C(=O)NC(=O)Nc2ccc(Oc3ncccn3)c(C)c2)CC1` (stereo not drawn) [Compound 10, 1-(4-methoxycyclohexanecarbonyl)-3-[3-methyl-4-(pyrimidin-2-yloxy)phenyl]urea]: the EC50 in data set [1] (Homo sapiens, U-87 MG, 72 h) turned out to be 33.5 µM; in data set [2] (Homo sapiens, LNCaP, 72 h) it was 13 µM; in data set [4] (Homo sapiens, 22Rv1, 72 h), 12.5 µM; in data set [5] it was 12.9 µM. Besides, in data set [3], the “EC50 (μM) in RWPE1 cells” value is “Inactive”.

As for `COC1CCC(C(=O)NC(=O)Nc2ccc(Oc3ccc(Cl)cn3)c(F)c2)CC1` (stereo not drawn) [Compound 12, N-((4-((5-chloropyridin-2-yl)oxy)-3-fluorophenyl)carbamoyl)-4-methoxycyclohexane-1-carboxamide], the EC50 in data set [1] (Homo sapiens, U-87 MG, 72 h) stood at 1.9 µM; in data set [2] (Homo sapiens, LNCaP, 72 h), 3.1 µM; in data set [3] (Homo sapiens, RWPE-1, 72 hours of treatment), 6.1 µM; in data set [4] (Homo sapiens, 22Rv1, 72 h), 1.9 µM; in data set [5], 1.9 µM. In addition, the kinetic solubility in data set [6] (setting [8]) was determined as 0.28 µM (≈ 0.118 µg/mL).

For `COC1CCC(C(=O)NC(=O)Nc2ccc(Oc3ncccn3)c(F)c2)CC1` (stereo not drawn) [Compound 13, 3-[3-fluoro-4-(pyrimidin-2-yloxy)phenyl]-1-(4-methoxycyclohexanecarbonyl)urea], the EC50 stood at 17.4 µM in data set [2] (Homo sapiens, LNCaP, 72 h); 14.1 µM in data set [4] (Homo sapiens, 22Rv1, 72 h); 11.3 µM in data set [5].

As for `COC1CC(C(=O)NC(=O)Nc2ccc(Oc3cnc(N4CCOCC4)nc3)c(C)c2)C1` (stereo not drawn) [Compound 44, 3-methoxy-N-((3-methyl-4-((2-morpholinopyrimidin-5-yl)oxy)phenyl)carbamoyl)cyclobutane-1-carboxamide], the concentration for a half-maximal effect (EC50) in data set [1] (Homo sapiens, U-87 MG, 72 h) stood at 22 µM; in data set [2] (Homo sapiens, LNCaP, 72 h), 6.3 µM; in data set [4] (Homo sapiens, 22Rv1, 72 h) it was 17.8 µM; in data set [5], 2.5 µM. Besides, in data set [6] (setting [8]), the kinetic solubility was found to be 0.95 µM (≈ 0.419 µg/mL).

With `COC1CC(C(=O)NC(=O)Nc2ccc(Oc3ncc(C)s3)c(C)c2)C1` (stereo not drawn) [Compound 60, 3-methoxy-N-((3-methyl-4-((5-methylthiazol-2-yl)oxy)phenyl)carbamoyl)cyclobutane-1-carboxamide], the half-maximal effective concentration (EC50) came to 0.32 µM in data set [1] (Homo sapiens, U-87 MG, 72 h); 0.88 µM in data set [2] (Homo sapiens, LNCaP, 72 h); 1.2 µM in data set [4] (Homo sapiens, 22Rv1, 72 h); 0.6 µM in data set [5].

Consider `Cc1cc(NC(=O)NC(=O)C2CCCCC2)ccc1Oc1ncc(Cl)cn1` [Compound 71, N-((4-((5-chloropyrimidin-2-yl)oxy)-3-methylphenyl)carbamoyl)cyclohexanecarboxamide], for which the “EC50 (μM) in U87 cells” value in data set [1] was “Inactive”. For the same compound, the 50% effective concentration (EC50) in data set [2] (Homo sapiens, LNCaP, 72 h) worked out at 10.4 µM; in data set [4] (Homo sapiens, 22Rv1, 72 h), 12.5 µM; in data set [5] it was 9.4 µM. For the same compound, in data set [3], the “EC50 (μM) in RWPE1 cells” value is “Inactive”.

With `COC1CC(C(=O)NC(=O)Nc2ccc(C)c(Oc3ncccn3)c2)C1` (stereo not drawn) [drawing 282, 3-methoxy-N-((4-methyl-3-(pyrimidin-2-yloxy)phenyl)carbamoyl)cyclobutane-1-carboxamide], the kinetic solubility in data set [6] (setting [9]) was in the range of 13 to 17 µM (≈ 4.63 to 6.06 µg/mL). Moreover, in data set [7], the EC50 lay in the range of 0.02 to 0.06 µM.

For the compound `COC12CC(C(=O)NC(=O)Nc3ccc(C)c(Oc4ncccn4)c3)(C1)C2` [drawing 283, 3-methoxy-N-((4-methyl-3-(pyrimidin-2-yloxy)phenyl)carbamoyl)bicyclo[1.1.1]pentane-1-carboxamide], the kinetic solubility in data set [6] (setting [9]) is 4 to 8 µM (≈ 1.47 to 2.95 µg/mL). Besides, in data set [7], the concentration giving a half-maximal response (EC50) lay within 0.011 to 0.02 µM.
